Laboratory results as given in patent US20060052404A1, “Pharmaceutical formulations comprising substituted xanthine compounds” (priority 2001, published 2006).

Legend:
[1] = test system: human epithelial cell line expressing the CFTR-ΔF508 mutation; settings: cells having the CFTR-ΔF508 mutation; cited from earlier work
CFTR-ΔF508 NBF-1 = CFTR-ΔF508 NBF-1 (Homo sapiens, UniProt P13569, DEL508-508); settings: cited from earlier work
CFTR-ΔF508 = CFTR-ΔF508 (Homo sapiens, UniProt P13569, DEL508-508); settings: cited from earlier work
CFTR-ΔF508, sequence (P13569 with tags, fused parts or gaps DEL508-508): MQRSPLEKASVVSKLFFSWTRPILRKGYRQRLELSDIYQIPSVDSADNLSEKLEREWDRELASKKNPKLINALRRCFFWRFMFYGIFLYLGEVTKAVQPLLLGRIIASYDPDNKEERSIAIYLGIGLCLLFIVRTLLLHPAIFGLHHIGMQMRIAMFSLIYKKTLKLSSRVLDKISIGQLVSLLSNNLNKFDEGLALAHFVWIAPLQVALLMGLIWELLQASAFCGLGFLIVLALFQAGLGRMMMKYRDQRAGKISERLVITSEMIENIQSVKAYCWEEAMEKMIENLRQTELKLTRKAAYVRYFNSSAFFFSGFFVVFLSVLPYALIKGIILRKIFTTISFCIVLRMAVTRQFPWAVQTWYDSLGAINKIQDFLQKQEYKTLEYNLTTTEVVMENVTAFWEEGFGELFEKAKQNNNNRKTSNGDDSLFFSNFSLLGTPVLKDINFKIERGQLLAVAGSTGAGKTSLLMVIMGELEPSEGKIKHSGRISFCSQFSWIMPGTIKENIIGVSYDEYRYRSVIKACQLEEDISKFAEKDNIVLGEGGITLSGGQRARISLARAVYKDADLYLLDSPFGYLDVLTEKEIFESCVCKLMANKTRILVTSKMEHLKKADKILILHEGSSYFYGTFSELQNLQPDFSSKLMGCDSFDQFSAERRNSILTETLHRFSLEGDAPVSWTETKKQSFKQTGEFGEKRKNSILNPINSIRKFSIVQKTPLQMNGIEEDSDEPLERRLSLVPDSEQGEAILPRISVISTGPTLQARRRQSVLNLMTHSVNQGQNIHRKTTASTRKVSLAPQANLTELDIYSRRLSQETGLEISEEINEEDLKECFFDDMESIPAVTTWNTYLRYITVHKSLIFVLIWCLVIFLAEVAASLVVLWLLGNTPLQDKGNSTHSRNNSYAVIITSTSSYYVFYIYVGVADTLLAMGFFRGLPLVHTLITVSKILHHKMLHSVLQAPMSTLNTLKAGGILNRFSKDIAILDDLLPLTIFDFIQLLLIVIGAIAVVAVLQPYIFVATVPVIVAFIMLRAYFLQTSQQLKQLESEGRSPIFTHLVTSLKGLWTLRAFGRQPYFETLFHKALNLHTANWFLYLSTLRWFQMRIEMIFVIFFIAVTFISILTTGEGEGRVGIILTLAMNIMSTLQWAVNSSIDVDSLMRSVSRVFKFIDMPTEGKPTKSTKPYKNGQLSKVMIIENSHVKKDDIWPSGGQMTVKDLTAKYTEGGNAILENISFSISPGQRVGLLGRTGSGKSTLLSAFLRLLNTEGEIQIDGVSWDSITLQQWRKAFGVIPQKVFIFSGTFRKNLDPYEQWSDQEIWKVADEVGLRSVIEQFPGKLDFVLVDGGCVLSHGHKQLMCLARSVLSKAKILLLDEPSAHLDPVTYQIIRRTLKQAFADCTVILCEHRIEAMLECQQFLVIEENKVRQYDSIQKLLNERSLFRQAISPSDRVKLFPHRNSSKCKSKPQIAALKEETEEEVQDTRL

isolated CFTR channels = isolated CFTR channels (Homo sapiens, UniProt P13569); settings: in vitro lipid bilayers; cited from earlier work
isolated CFTR channels, sequence (P13569 whole entry): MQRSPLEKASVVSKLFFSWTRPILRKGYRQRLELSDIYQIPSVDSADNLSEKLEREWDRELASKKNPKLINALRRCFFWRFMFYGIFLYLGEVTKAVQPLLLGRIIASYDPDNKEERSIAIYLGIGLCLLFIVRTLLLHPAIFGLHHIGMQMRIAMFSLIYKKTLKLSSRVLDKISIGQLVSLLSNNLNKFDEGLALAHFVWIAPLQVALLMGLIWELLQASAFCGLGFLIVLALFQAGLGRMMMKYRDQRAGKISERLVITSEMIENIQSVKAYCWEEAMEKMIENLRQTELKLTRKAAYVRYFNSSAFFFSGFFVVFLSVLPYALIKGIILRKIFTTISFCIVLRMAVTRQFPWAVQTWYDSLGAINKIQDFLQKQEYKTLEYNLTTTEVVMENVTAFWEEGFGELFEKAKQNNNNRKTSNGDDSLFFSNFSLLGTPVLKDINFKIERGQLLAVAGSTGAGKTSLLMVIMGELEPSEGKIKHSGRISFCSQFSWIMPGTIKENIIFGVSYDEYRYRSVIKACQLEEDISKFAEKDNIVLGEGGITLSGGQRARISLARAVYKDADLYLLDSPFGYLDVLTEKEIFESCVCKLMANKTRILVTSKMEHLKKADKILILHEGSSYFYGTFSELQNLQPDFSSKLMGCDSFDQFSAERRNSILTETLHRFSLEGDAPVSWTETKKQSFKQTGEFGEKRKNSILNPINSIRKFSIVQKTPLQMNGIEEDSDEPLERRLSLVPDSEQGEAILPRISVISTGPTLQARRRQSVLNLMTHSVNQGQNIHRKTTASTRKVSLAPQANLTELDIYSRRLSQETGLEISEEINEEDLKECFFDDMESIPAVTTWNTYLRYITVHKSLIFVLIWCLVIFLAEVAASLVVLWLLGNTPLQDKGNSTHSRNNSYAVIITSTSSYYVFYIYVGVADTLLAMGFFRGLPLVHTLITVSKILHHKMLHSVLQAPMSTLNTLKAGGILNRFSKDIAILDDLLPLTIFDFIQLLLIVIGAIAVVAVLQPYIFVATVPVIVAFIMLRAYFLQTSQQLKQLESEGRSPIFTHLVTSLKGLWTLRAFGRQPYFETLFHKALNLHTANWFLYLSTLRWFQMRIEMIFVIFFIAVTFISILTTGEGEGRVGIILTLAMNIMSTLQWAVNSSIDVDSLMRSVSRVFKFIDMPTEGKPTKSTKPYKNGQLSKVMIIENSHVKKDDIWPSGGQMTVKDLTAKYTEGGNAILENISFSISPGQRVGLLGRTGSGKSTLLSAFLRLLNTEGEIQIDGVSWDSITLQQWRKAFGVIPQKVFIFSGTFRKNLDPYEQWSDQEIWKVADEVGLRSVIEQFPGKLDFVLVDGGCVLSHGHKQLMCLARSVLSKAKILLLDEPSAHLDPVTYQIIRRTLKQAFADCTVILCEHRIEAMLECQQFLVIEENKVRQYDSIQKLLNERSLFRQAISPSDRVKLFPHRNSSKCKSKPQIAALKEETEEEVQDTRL

[2] = CPX absorption profiles of four suspension formulations in dogs, single oral dose; assay type: in vivo, male Beagle dogs; settings: dog, 30 mg/kg oral
Procedure: Experimental—This study was designed to determine the relative bioavailability of a single oral CPX dose when administered by gavage to male Beagle dogs. The CPX dosages was administered in a single 30 mg/kg oral dose in four different suspension formulations. These suspension formulations were: • 1) xanthan gum (homogenized), • 2) sodium carboxymethylcellulose [NaCMC] (homogenized), • 3) sodium carboxymethylcellulose [NaCMC] (non-homogenized), and • 4) corn oil (homogenized).
Each formulation contained CPX at a nominal concentration of 60 mg/gram of suspension. […]
Whole blood samples were collected (approx. 3 ml/sample) by jugular venipuncture into sodium heparin-containing collection tubes. […] The whole blood was centrifuged to isolate plasma, and concentrations of CPX in the plasma at these time intervals were determined using high performance liquid chromatography (HPLC) with mass spectrometric detection, with a lower quantitation limit of 1 ng/ml.
The following pharmacokinetic parameters were determined for each experimental CPX formulation: • Cmax—maximum analyte concentration in the plasma, ng/ml • Tmax—time of maximum analyte concentration in the plasma • T1/2—terminal half-life of the drug • AUClast—area under the curve (AUC) from time 0 to the last measurable concentration. […] Expressed as ng·h/ml AUC(0∞)—area under the curve from time 0 to infinity (also written AUCinf or AUC∞)

[3] = CPX absorption profile in rats, water vs corn oil formulation, single oral gavage; assay type: in vivo; settings: rat, 1.4 mg/kg single oral gavage, during the course of the experiment
Procedure: Experimental—This study was designed to determine the pharmacokinetics of CPX bioavailability in blood plasma following a single oral administration by oral gavage to male Sprague-Dawley rats. The CPX compound was suspended in either a corn oil or water formulation and administered once via oral gavage at 10 ml/kg of rat weight to two groups of male Sprague-Dawley rats.
The rats were not fasted prior to blood collection. Approximately 0.4 ml of whole blood was collected from each animal into heparinized tubes via puncture of the orbital sinus under 70% CO2/30% O2 anesthesia. Approximately 0.2 ml of plasma was separated by centrifugation and analyzed for CPX concentration using high performance liquid chromatography (HPLC) with mass spectrometric detection. Following the completion of blood collection, all surviving animals were euthanized by carbon dioxide overdose.
Rat plasma CPX concentration as a function of time (in hours) using the two formulations was measured. Each rat in this experiment (n=10) received a 1.4 mg/kg CPX dose, which was equivalent to a 100 mg dose. Ten rats were used at each time point to generate a mean CPX concentration value.

[4] = Mutagenicity and adverse side effects of oral doses in animal model systems; assay type: in vivo; settings: oral doses to rat, guinea pig, mouse or dog model systems
[5] = Adverse side effects of oral doses in human subjects; assay type: in vivo; settings: oral doses to human subjects
[6] = test system: cell derived from a cystic fibrosis patient; settings: cited from earlier work
A1 adenosine receptor = target: T1, A1 adenosine receptor (Homo sapiens, UniProt P30542); settings: cited from earlier work
T1 sequence (P30542 1-326): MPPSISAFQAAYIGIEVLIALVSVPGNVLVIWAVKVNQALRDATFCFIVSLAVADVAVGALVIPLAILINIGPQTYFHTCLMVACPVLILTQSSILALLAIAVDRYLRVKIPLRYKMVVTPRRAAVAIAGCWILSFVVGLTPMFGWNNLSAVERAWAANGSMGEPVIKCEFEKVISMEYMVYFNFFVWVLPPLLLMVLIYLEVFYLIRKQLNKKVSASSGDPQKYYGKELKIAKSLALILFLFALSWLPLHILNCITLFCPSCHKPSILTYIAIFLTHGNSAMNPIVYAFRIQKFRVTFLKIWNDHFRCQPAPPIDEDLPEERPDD

NBF-1 region of CFTR = NBF-1 region of CFTR (Homo sapiens, UniProt P13569); settings: cited from earlier work
NBF-1 region of CFTR, sequence (P13569 423-646 limits assumed): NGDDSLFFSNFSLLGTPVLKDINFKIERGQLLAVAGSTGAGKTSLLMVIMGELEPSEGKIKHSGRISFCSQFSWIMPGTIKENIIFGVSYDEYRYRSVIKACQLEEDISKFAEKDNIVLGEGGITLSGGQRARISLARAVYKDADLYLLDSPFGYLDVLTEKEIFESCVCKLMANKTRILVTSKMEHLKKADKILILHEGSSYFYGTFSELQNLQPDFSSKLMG

[7] = Solubility of CPX in solvents tested; assay type: physicochemical; settings: any of the solvents tested, despite use of co-solvents
From the text: This EXAMPLE describes the CPX formulations used in the present invention. Adequate solubility of CPX was unattainable in any of the solvents tested, even despite the use of co-solvents. This insolubility necessitated the use of the suspension and capsule formulations, as described below. One formulation was left non-homogenized to study the effect of homogenization on bioavailability.

CFTR-ΔF508 NBF-1, sequence (P13569 with tags, fused parts or gaps DEL508-508 limits assumed): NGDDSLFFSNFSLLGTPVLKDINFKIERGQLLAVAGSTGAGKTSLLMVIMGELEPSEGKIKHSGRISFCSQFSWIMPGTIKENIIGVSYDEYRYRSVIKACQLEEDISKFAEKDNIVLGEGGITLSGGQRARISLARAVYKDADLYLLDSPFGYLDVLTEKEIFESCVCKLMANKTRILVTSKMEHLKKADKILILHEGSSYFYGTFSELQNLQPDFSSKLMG

Compound: C=CCn1c(=O)c2[nH]c(C3CCCCC3)nc2n(CC=C)c1=O [DAX, N,N-diallylcyclohexylxanthine]
- chloride efflux [1]: activating chloride ion efflux

Compound: Cn1c(=O)c2c(nc(C3CCCCC3)n2C)n(C)c1=O [CHC, cyclohexylcaffeine]
- chloride efflux [1]: activating chloride ion efflux

Compound: 1,3-dipropyl-7-methylcyclopenthylxanthine [DP-CPX]
- chloride efflux [1]: activating chloride ion efflux

Compound: CCCn1c(=O)c2[nH]c(-c3ccc(OCC(=O)NCCN)cc3)nc2n(CCC)c1=O [xanthine amino congener]
- chloride efflux [1]: activating chloride ion efflux

Compound: CCCn1c(=O)c2[nH]c(C3CCCC3)nc2n(CCC)c1=O [CPX, 1,3-dipropyl-8-cyclopentylxanthine]
- affinity for CFTR-ΔF508 NBF-1 versus wild-type CFTR NBF-1 (CFTR-ΔF508 NBF-1): greater
- intracellular trafficking and maturation of CFTR-ΔF508 (CFTR-ΔF508): enhances
- activation of isolated CFTR channels (isolated CFTR channels): activates
- time of measured peak concentrations of CPX in the plasma after oral dosing [2]: ≤ 5 h
- chloride efflux [1]: promotes chloride efflux
- mortality or signs of morbidity [3]: no mortality or signs of morbidity
- mutagenicity or grossly apparent adverse side effects [4]: does not appear to display any mutagenicity or grossly apparent adverse side effects
- apparent adverse side effects [5]: no apparent adverse side effects
- chloride efflux [6]: activates
- A1 adenosine receptor antagonism (A1 adenosine receptor): potent
- binding to the NBF-1 region of CFTR (NBF-1 region of CFTR): binds
- adequate solubility [7]: unattainable
